Measured values as given in BigSolDB 2.1.

COC(=O)C1=C(C)NC(C)=C(C(=O)OCC(C)C)C1c1ccccc1[N+](=O)[O-] (stereo not given)
solubility (mole fraction)
Settings | in acetonitrile | in cyclohexane | in ethanol | in ethyl acetate | in isopropanol | in n-butanol | in n-propanol | in toluene | in water
278.15 K | 0.00849 | – | 0.00278 | 0.0166 | 0.00467 | 0.00573 | 0.00378 | 0.00154 | 4e-06
283.15 K | 0.0102 | 5.7e-05 | 0.00348 | 0.0188 | 0.00563 | 0.00671 | 0.00455 | 0.00183 | 5e-06
288.15 K | 0.012 | 7.3e-05 | 0.0043 | 0.0215 | 0.00669 | 0.00795 | 0.00545 | 0.00218 | 7e-06
293.15 K | 0.0144 | 9.1e-05 | 0.00529 | 0.0246 | 0.00796 | 0.00938 | 0.00657 | 0.0026 | 9e-06
298.15 K | 0.0169 | 0.000111 | 0.00648 | 0.0278 | 0.00935 | 0.0111 | 0.0078 | 0.00309 | 1.2e-05
303.15 K | 0.0197 | 0.000137 | 0.00789 | 0.0316 | 0.011 | 0.0129 | 0.00941 | 0.00366 | 1.5e-05
308.15 K | 0.0232 | 0.000164 | 0.00935 | 0.0358 | 0.0129 | 0.0149 | 0.0111 | 0.00428 | 1.9e-05
313.15 K | 0.0271 | 0.000198 | 0.0112 | 0.0401 | 0.0152 | 0.0173 | 0.013 | 0.005 | 2.4e-05
318.15 K | 0.0317 | 0.000237 | 0.0134 | 0.0457 | 0.0178 | 0.0202 | 0.0155 | 0.00588 | 3e-05
